Reference: patent US5565478A (The United States of America as represented by the …, priority 1994, dated 1996)
Where two headings read alike, the source gives them in different places.

Experiments:
[1] = tested on: nonvoltage-gated and voltage-gated calcium channels; settings: cited from earlier work
[2] = Stability of compound 1 in PEG-400 solution; type: physicochemical; settings: temperatures of up to 50° C.
Procedure: Compound 1 (NSC 609974) is available from the National Cancer Institute as a white powder. Preferably, it is dispensed as a 100 mg/mL solution in PEG-400. Compound 1 in PEG-400 solution is stable for at least 3 months at temperatures of up to 50° C. It is administered as a measured liquid dose daily for 8 days or more. It is recommended that patients take nothing by mouth for 3 hours prior to and 1 hour after taking the compound 1.

A2780-CP70 cells [3] = test: Colony assay, paclitaxel followed by compound 1; type: cell-based, human; settings: paclitaxel (0.003 μM) 24 hr, then compound 1 (0 to 10 μM); cisplatin-resistant A2780-CP70
Procedure: (§1) A2780-CP70 are a selected subline of A2780 which are stably resistant to cisplatin in the absence of continuous exposure. These cells were obtained from Robert Ozols, MD at the Fox Chase Cancer Center, Philadelphia, Pa., USA. These cells were cultured as described above.
The cells were again washed with PBS and treated with compound 1 (0 to 10 μM) for 24 hr, washed again with PBS and incubated for 5 days in drug-free media. The resulting cells were fixed, stained and the colonies were counted. Data are presented in FIGS. 4 and 5 as a percentage of control growth (DMSO treatment only).

A2780 cells [4] = test: Colony assay, compound 1 in combination with carboplatin; type: cell-based, human
Procedure: (§2) A2780 human ovarian cancer cells are available from the ATCC. The cells were cultured in RPMI 1640 with 10% FCS under standard conditions. See the ATCC catalog. The culture media contained penicillin and streptomycin and in some instances, insulin.
(§3) Cells were incubated overnight in serum-containing medium, then washed once and treated with compound 1 (5 μM). After 24 hr, the cells were washed once with PBS and then treated with carboplatin (1 to ~200 μM) for an additional 24 hr. The resulting cells were washed once with PBS, treated with serum-containing media and incubated for 5 days. The cells were then fixed and stained with methylene blue in 40% methanol and the colonies were counted. […] Data are presented as a percent of control (DMSO vehicle) growth.

[5] = tested on: production of arachidonic acid; settings: cited from earlier work
A2780-CP70 cells [6] = test: Colony assay, compound 1 followed by paclitaxel; type: cell-based, human; settings: compound 1 (0, 1 and 5 μM) 24 hr, then compound 3 (paclitaxel, 0 to 0.01 μM) 24 hr
Procedure: as §1
(§4) Cells were incubated overnight in serum-containing medium, then washed once and treated with compound 1 (0, 1 and 5 μM). […] The resulting cells were washed once with PBS, treated with serum-containing media and incubated for 5 days. The cells were then fixed and stained with methylene blue in 40% methanol and the colonies were counted. FIGS. 2 and 3 show the results for the A2780 and A2780-CP70 cells, respectively. Data are presented as a percent of control (DMSO vehicle) growth.

[7] = both in vitro and in vivo; cited from earlier work
[8] = at least; fixed dose 100 mg/m^2/d, by the 8th day of administration; read-out: plasma levels in humans; cited from earlier work
[9] = Toxicity of compound 1 in patients
[10] = humans, 100 mg/m^2/d; cited from earlier work
A2780 cells [11] = test: Colony assay, compound 1 followed by paclitaxel; type: cell-based, human; settings: compound 1 (0, 1 and 5 μM) 24 hr, then compound 3 (paclitaxel, 0 to 0.01 μM) 24 hr
Procedure: as §2, §4

[12] = 100 mg/m^2/day
[13] = tested on: phosphorylation events which are associated with receptor activation; settings: cited from earlier work
A2780-CP70 cells [14] = test: Colony assay, compound 1 in combination with carboplatin; type: cell-based, human
Procedure: as §1, §3

[15] = tested on: MDA 231 human breast cancer cells; test: Monolayer assay, compound 1 followed by paclitaxel; type: cell-based; settings: compound 1 (5 μM) 24 hr, then paclitaxel (0 to 0.007 μM) 24 hr; MDA 231 monolayer
Procedure: MDA-231 hormone-resistant human breast cancer cells from ATCC were cultured in DMEM with 10% FCS and penicillin/streptomycin, under standard conditions.
(§5) For each of the cell types, 50,000 cells were plated per well in 24-well tissue culture plates. One mL of medium was added to each well and the cells were incubated overnight at 37° C. The media was carefully aspirated away and media (1 mL) containing compound 1 (5 μM) or DMSO vehicle control was added to each well. After incubating the cells for 24 hr at 37° C., the media from each well was carefully aspirated away and each well was washed twice with serum-free media. […] After the incubation, the media was aspirated away and each well was washed twice with serum-free media. Serum-containing media was then added to each well and all plates were incubated for 4 days at 37° C. At the end of 4 days, the media was aspirated off and wells were fixed and stained with crystal violet in methanol. The wells were air dried and eluted with sodium citrate and ethanol. The optical density (OD) was determined for each of the well eluates at 540 nm. The percent relative growth was calculated by dividing the mean OD of identically treated wells by the OD of the control and multiplying by 100.

A2780-CP70 cells [16] = test: Monolayer assay, compound 1 followed by paclitaxel; type: cell-based, human; settings: compound 1 (5 μM) 24 hr, then paclitaxel (0 to 0.007 μM) 24 hr
Procedure: as §1, §5

[17] = tested on: A2780 human ovarian cancer cells; test: Colony growth inhibition, 24 hr exposure; type: cell-based; settings: colonies counted after 5 days
Procedure: as §2
(§6) Cells (500) were plated in 6-well plates and allowed to grow overnight. […] Controls were conducted by adding DMSO vehicle in complete media. […] After 5 days of incubation, the cells were washed once with PBS and then stained with methylene blue in 40% methanol for 20 min. The wells were rinsed gently with water and allowed to air dry. Colonies were counted by hand.

clinical = settings: human, plasma, 100 mg/m^2
[18] = tested on: A2780-CP70 cells (cisplatin-resistant); test: Colony growth inhibition, 24 hr exposure; type: cell-based; settings: Homo sapiens, colonies counted after 5 days
Procedure: as §1, §6

A2780 cells [19] = test: Monolayer assay, compound 1 followed by paclitaxel; type: cell-based, human; settings: compound 1 (5 μM) 24 hr, then paclitaxel (0 to 0.007 μM) 24 hr
Procedure: as §2, §5

[20] = tested on: voltage-gated L-type calcium channels in vascular smooth muscle cells; settings: vascular smooth muscle cells under patch clamp; cited from earlier work
[21] = tested on: receptor-mediated calcium entry (RMCE) in platelets, endothelial cells and neutrophils; settings: cited from earlier work
human tumors = settings: clinical trials; cited from earlier work
[22] = cited from earlier work
microtubule = settings: cited from earlier work
calcium levels in cells = settings: cited from earlier work
[23] = in vitro; cited from earlier work
[24] = tested on: paclitaxel-induced neutropenia; settings: cited from earlier work
[25] = carboplatin first, then compound 1
[26] = compound 1 (5 μM) 24 hr, then carboplatin (1 to ~200 μM) 24 hr

## NC(=O)c1nnn(Cc2cc(Cl)c(C(=O)c3ccc(Cl)cc3)c(Cl)c2)c1N [Compound 1, 5-amino-1-(4-(4-chlorobenzoyl)-3,5-dichlorobenzyl)-1,2,3-triazole-4-carboxamide]
[1]
  inhibition of calcium uptake: inhibitor of calcium uptake
[2]
  stability in PEG-400 solution: at least 3 months
A2780-CP70 cells [3]
  combination effect on growth: additive effect
A2780 cells [4]; [25]
  combination effect on growth, reversed sequence: sub-additive effect
A2780 cells [4]; [26]
  combination effect on growth: sub-additive effect
[5]
  effect on production of arachidonic acid: alter production of arachidonic acid
A2780-CP70 cells [6]
  combination effect on growth: supra-additive effect
[7]
  single agent activity: antiproliferative, anti-invasive, and anti-metastatic properties
[8]
  concentration: 1 to 5 µM
[9]; human, in vivo
  common low-grade toxicities: nausea and emesis
  uncommon toxicities: mood changes (low-grade), peripheral neuropathy (mild to moderate) and neutropenia
[9]; patients, 100 mg/m^2/day
  toxicity at dosing level: no significant toxicity
[10]
  toxicity at fixed dose: no significant toxicity
A2780 cells [11]
  combination effect on growth: supra-additive effect
[12]
  usual plasma levels, plateau: 3 to 4 µg/mL
[12]; read-out: usual plasma levels, plateau (molar)
  concentration: 5 to 10 µM
[13]
  effect on phosphorylation events: inhibits phosphorylation events
A2780-CP70 cells [14]; [25]
  combination effect on growth, reversed sequence: sub-additive effect
A2780-CP70 cells [14]; [26]
  combination effect on growth: sub-additive effect
[15]
  combination effect on percent relative growth: supra-additive effect
A2780-CP70 cells [16]
  combination effect on percent relative growth: supra-additive effect
[17]
  IC50: 3 µM
clinical
  concentration at 192 h: 1 to 5 µM
[18]
  IC50: 9.5 µM
A2780 cells [19]
  combination effect on percent relative growth: supra-additive effect

## COc1ccc(CCCOC(Cn2ccnc2)c2ccc(OC)cc2)cc1 (stereo not drawn) [Compound 2]
[20]
  block of voltage-gated L-type calcium channels: blocks voltage-gated L-type calcium channels
[21]
  inhibition of RMCE: inhibits RMCE

## CC(=O)O[C@H]1C(=O)[C@@]2(C)[C@H]([C@H](OC(=O)c3ccccc3)[C@]3(O)C[C@H](OC(=O)[C@H](O)[C@@H](NC(=O)c4ccccc4)c4ccccc4)C(C)=C1C3(C)C)[C@]1(OC(C)=O)CO[C@@H]1C[C@@H]2O [Compound 3, Paclitaxel]
Human tumors
  efficacy in human tumors: demonstrated efficacy in several human tumors
[22]; paclitaxel infusion over 3-24 hours every 21 days
  dose at which dose limiting toxicity of peripheral neuropathy has been seen: above 300 mg/m^2
[22]; patients
  toxicities of paclitaxel: nausea, emesis, diarrhea, neutropenia, thrombocytopenia, anemia, hair loss, myalgia, cardiac conduction abnormalities, hypersensitivity reactions, peripheral and autonomic neuropathy, mucositis
microtubule
  effect on microtubule polymerization: promotion of microtubule polymerization

## Clc1ccc(COC(Cn2ccnc2)c2ccc(Cl)cc2Cl)cc1 (stereo not drawn) [econazole]
Calcium levels in cells
  effect on calcium levels in cells: effect calcium levels in cells

## OC(Cn1cncn1)(Cn1cncn1)c1ccc(F)cc1F [fluconazole]
Calcium levels in cells
  effect on calcium levels in cells: effect calcium levels in cells

## CCC(C)n1ncn(-c2ccc(N3CCN(c4ccc(OCC5COC(Cn6cncn6)(c6ccc(Cl)cc6Cl)O5)cc4)CC3)cc2)c1=O (stereo not drawn) [itraconazole]
Calcium levels in cells
  effect on calcium levels in cells: effect calcium levels in cells

## CC(=O)N1CCN(c2ccc(OCC3COC(Cn4ccnc4)(c4ccc(Cl)cc4Cl)O3)cc2)CC1 (stereo not drawn) [ketoconazole]
Calcium levels in cells
  effect on calcium levels in cells: effect calcium levels in cells
[23]
  effect on activity of paclitaxel: augment the activity of paclitaxel

## Clc1ccc(COC(Cn2ccnc2)c2ccc(Cl)cc2Cl)c(Cl)c1 (stereo not drawn) [miconazole]
Calcium levels in cells
  effect on calcium levels in cells: effect calcium levels in cells

B1: G-CSF: cytokine which blunts paclitaxel-induced neutropenia; recombinant cytokine from Amgen (protein, UniProt P09919 31-207, looked up)
Granulocyte …: TPLGPASSLPQSFLLKCLEQVRKIQGDGAALQEKLVSECATYKLCHPEELVLLGHSLGIPWAPLSSCPSQALQLAGCLSQLHSGLFLYQGLLQALEGISPELGPTLDTLQLDVADFATTIWQQMEELGMAPALQPTQGAMPAFASAFQRRAGGVLVASHLQSFLEVSYRVLRHLAQP
modifications: filgrastim
notes: recombinant cytokine from Amgen
[24]; G-CSF escalation up to 30 μg/kg/d, paclitaxel alone or with compound 1
  maintenance of paclitaxel dose: associated with maintenance of the dose of paclitaxel
[24]; in vivo
  effect on paclitaxel-induced neutropenia: blunts paclitaxel-induced neutropenia
